From ChEMBL document CHEMBL1201862, “PubChem BioAssay data set” (2004)
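48-hour exposure; five concentrations; linearly interpolated endpoints. Here, GI50 denotes the concentration required for 50% inhibition of growth.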 Calls of active or inactive are those of the source. Rule as the data show it: active = GI50 up to about 1.1 µM and inactive = higher.

Columns and labels:
Test in all cases: growth of human tumour cells (NCI), 48 h
OVCAR-4 = system: OVCAR-4
CAKI-1 = system: CAKI-1
EKVX = system: EKVX
COLO 205 = system: COLO 205
LOX IMVI = system: LOX IMVI
HCT-116 = system: HCT-116
NCI-H460 = system: NCI-H460
SR = system: SR
SN12C = system: SN12C
K562 = system: K562
MOLT-4 = system: MOLT-4
Malme-3M = system: Malme-3M
HT-29 = system: HT-29
SNB-19 = system: SNB-19
KM12 = system: KM12
SK-MEL-5 = system: SK-MEL-5
SNB-75 = system: SNB-75
SK-MEL-28 = system: SK-MEL-28

SMILES	GI50 (OVCAR-4)	GI50 (CAKI-1)	GI50 (EKVX)	GI50 (COLO 205)	GI50 (LOX IMVI)	GI50 (HCT-116)	GI50 (NCI-H460)	GI50 (SR)	GI50 (SN12C)	GI50 (K562)	GI50 (MOLT-4)	GI50 (Malme-3M)	GI50 (HT-29)	GI50 (SNB-19)	GI50 (KM12)	GI50 (SK-MEL-5)	GI50 (SNB-75)	GI50 (SK-MEL-28)
O=C1C=CC=CC2CC=C[C@@H](O)C12 (stereo partly specified)	31 µM (inactive)	65.6 µM (inactive)	24.5 µM (inactive)	19.6 µM (inactive)	15.6 µM (inactive)	13.2 µM (inactive)	18.4 µM (inactive)	18.8 µM (inactive)	22.4 µM (inactive)	26.5 µM (inactive)	20.9 µM (inactive)	21.3 µM (inactive)	16.8 µM (inactive)	22.9 µM (inactive)	10.4 µM (inactive)	18 µM (inactive)		
COc1cccc2c1[C@H]1OC(=O)NC1CCCCC2 (stereo partly specified)	> 100 µM (inactive)	> 100 µM (inactive)	> 100 µM (inactive)	> 100 µM (inactive)	> 100 µM (inactive)	> 100 µM (inactive)	> 100 µM (inactive)		> 100 µM (inactive)	> 100 µM (inactive)	> 100 µM (inactive)	> 100 µM (inactive)	> 100 µM (inactive)	> 100 µM (inactive)	> 100 µM (inactive)	> 100 µM (inactive)	> 100 µM (inactive)	> 100 µM (inactive)
O=C1CCN2C(=O)CCN12	> 100 µM (inactive)	> 100 µM (inactive)	> 100 µM (inactive)	> 100 µM (inactive)		> 100 µM (inactive)	> 100 µM (inactive)	> 100 µM (inactive)	> 100 µM (inactive)	> 100 µM (inactive)	> 100 µM (inactive)	> 100 µM (inactive)	> 100 µM (inactive)	> 100 µM (inactive)	> 100 µM (inactive)			> 100 µM (inactive)
C/C(CCN(C)C)=N/O	< 0.01 µM (active)	1.02 µM (active)	1.55 µM (inactive)	0.597 µM (active)		0.531 µM (active)	1.64 µM (inactive)	0.281 µM (active)	14.3 µM (inactive)	0.292 µM (active)	0.328 µM (active)		0.658 µM (active)	35.9 µM (inactive)	12.5 µM (inactive)		16.8 µM (inactive)	7.13 µM (inactive)
CN(C(=O)C12C3C4C1C1C2C3C41C(O)C(C)(C)C)C(C)(C)C (stereo unspecified)	> 100 µM (inactive)	> 100 µM (inactive)	> 100 µM (inactive)	> 100 µM (inactive)	> 100 µM (inactive)	> 100 µM (inactive)	> 100 µM (inactive)		> 100 µM (inactive)	> 100 µM (inactive)	> 100 µM (inactive)	> 100 µM (inactive)	> 100 µM (inactive)	> 100 µM (inactive)	> 100 µM (inactive)	> 100 µM (inactive)	> 100 µM (inactive)	> 100 µM (inactive)
CC(=O)NNc1nc(C)c(C(=O)/C=C/c2ccc(Cl)cc2)s1		> 100 µM (inactive)	57.7 µM (inactive)	> 100 µM (inactive)	> 100 µM (inactive)		> 100 µM (inactive)			> 100 µM (inactive)	> 100 µM (inactive)	> 100 µM (inactive)	> 100 µM (inactive)	> 100 µM (inactive)	> 100 µM (inactive)	> 100 µM (inactive)	> 100 µM (inactive)	> 100 µM (inactive)
O=c1c2cc(Br)cc(Br)c2[nH]c(=S)n1-c1ccccc1	86.3 µM (inactive)	54.5 µM (inactive)	58.1 µM (inactive)	> 100 µM (inactive)	75.2 µM (inactive)	48.8 µM (inactive)	> 100 µM (inactive)		78.5 µM (inactive)	32.4 µM (inactive)		82.4 µM (inactive)	> 100 µM (inactive)	60.8 µM (inactive)	> 100 µM (inactive)	54.8 µM (inactive)	32.1 µM (inactive)	50.7 µM (inactive)
O=C(/C=C/c1ccc(OCCCOc2ccc(/C=C/C(=O)c3ccccc3)cc2)cc1)c1ccccc1	> 100 µM (inactive)		> 100 µM (inactive)	> 100 µM (inactive)	> 100 µM (inactive)	77.4 µM (inactive)	> 100 µM (inactive)	> 100 µM (inactive)	> 100 µM (inactive)	> 100 µM (inactive)	> 100 µM (inactive)	> 100 µM (inactive)	> 100 µM (inactive)	63.2 µM (inactive)		> 100 µM (inactive)	33.4 µM (inactive)	> 100 µM (inactive)
CCc1cc2c(c3[nH]ccc13)[C@@H](C)C[C@H]2C		15.8 µM (inactive)	20.7 µM (inactive)	19.9 µM (inactive)	12.7 µM (inactive)	16 µM (inactive)	14.9 µM (inactive)		15.6 µM (inactive)	21.6 µM (inactive)	14.3 µM (inactive)	18.6 µM (inactive)	19.7 µM (inactive)		19.1 µM (inactive)	16.9 µM (inactive)	17.5 µM (inactive)	16.1 µM (inactive)
